According to paper PMC3199744, “Preformulation and stability in biological fluids of the retrocyclin RC-101, a potential anti-HIV topical microbicide” (AIDS Research and Therapy, 2011):

Assay: Stability in HVF positive for bacterial vaginosis (HVF BV+), detection by LC-MS/MS
Settings: for detection of RC-101 by LC-MS/MS: nanoLC-SRM MS, qualitative
Procedure: After removing the Instead Softcup®, a speculum examination was performed. Swab specimens of the endocervix were obtained using the Mini-tip Culturette TN collection system (Becton Dickinson, Sparks, MD) according to the manufacturer's guidelines. C. trachomatis and N. gonorrhoeae were detected with an amplified DNA assay based on the simultaneous amplification and detection of target DNA amplification primers and a fluorescent label detector probe. Bacterial vaginosis was detected by Gram stain and assessed by the Nugent score, where score results between 0 and 3 indicate a normal flora, between 4 and 6 indicates an intermediate state, and between 7 and 10 indicates bacterial vaginosis.
The HVF from the Instead Softcup® was removed by centrifugation of the conical tube for 10 min at 5,000 rpm. […] HVF was then removed from the cup and the pH of each HVF sample was measured with Fisher Alkacid pH filter strips (Fisher Scientific). All samples collected on a specific day were pooled to be used for the research studies. If the pH of the individual samples was higher than 5, the sample was not included in the pool but it was stored at -80°C for separate analysis. If the sample contained blood, it was immediately discarded. Samples were prepared as described in Table 1. […] Because of its high viscosity, HVF was measured by weight and not by volume. All solutions were prepared fresh and incubated with HVF (or water) at 37°C for specific periods of time (0, 2, 6, 12, 24, 48, and 72 h), unless specified otherwise. At each time point, the samples were centrifuged at 10,000 rpm for 10 min to separate the supernatant from the epithelial cells as described in the cell processing section. Both parts (supernatant and cells) were stored at -80 ± C until analyzed by LC-MS/MS. To evaluate the influence of freezing the fluid prior to the analysis, the last pool of HVF was divided into two samples: one used fresh (at the time of collection), and the other one stored at -80°C for a 3-month period. After that time period, HVF was thawed and processed for blank and RC-101 solution only, as described in Table 1. HVF samples collected with a high pH value indicative of BV were stored at -80°C as previously mentioned. After confirmation of BV on those fluid samples by Gram stain score, the fluid samples (HVF BV^+) were thawed, pooled, and processed as described in Table 1.
At each time point, the sample was removed from the incubation chamber and centrifuged for 10 min at 10,000 rpm, at 4 ± C to separate the supernatant from cell pellet. Supernatant (100 μL) was added to microcentrifuge filters Ultracel YM-10 Microcon MWCO 10,000 (Millipore Corporation, Bedford, MA), which were pre-washed with Milli Q water to eliminate any trace of propylene glycol from the filters. Samples were centrifuged twice for 15 min at 8,500 rpm, at 4 ± C. The filtrate was collected and frozen at -80 ± C until further analysis. A solution of 3 M urea was added to the cell pellet (1:1 w/w) obtained from the first centrifugation, to lyse the cells. This mixture was vortexed three times for 30 sec, and then centrifuged for 10 min at 10,000 rpm, at 4 ± C. The supernatant obtained from the cell lysate was then added to microcentrifuge filters Ultracel YM-10 Microcon MWCO 10,000 pre-washed with Milli Q water. Samples were centrifuged twice for 15 min at 8,500 rpm, at 4 ± C. The filtrate was collected and frozen at -80 ± C until analysis. […] Samples were thawed and added to PepCleanTM C-18 spin columns (Pierce Biotechnology Inc., Rockford, IL) for desalting, after column conditioning with acetonitrile:water (50:50) and equilibration with 0.1% trifluoroacetic acid. The column was washed three times with 0.1% trifluoroacetic acid, and RC-101 was eluted with acetonitrile:water (60:40) in 0.1% trifluoroacetic acid.

**Q.** Which “detection of RC-101 by LC-MS/MS” value (HVF BV+ pool 1:1, 37°C, 2 h) does the source give for “GICRCICGKGICRCICGR (bicyclic or more) [RC-101]” here?
**A.** The value was “-”.

**Q.** What about the “detection of RC-101 by LC-MS/MS” value (HVF BV+ pool 1:1, 37°C, 6 h) of the same sequence?
**A.** Its value is “-”.

**Q.** What about the “detection of RC-101 by LC-MS/MS” value (HVF BV+ pool 1:1, 37°C, 12 h) of the same sequence?
**A.** Its value is “-”.

**Q.** And the “detection of RC-101 by LC-MS/MS” value (HVF BV+ pool 1:1, 37°C, 24 h)?
**A.** Its value is “-”.

**Q.** And the “detection of RC-101 by LC-MS/MS” value (HVF BV+ pool 1:1, 37°C, 48 h)?
**A.** The value was “-”.

**Q.** What about the “detection of RC-101 by LC-MS/MS” value (HVF BV+ pool (pH 5.8 ± 0.6, stored -80°C) 1:1, 37°C, 0 h) of the same sequence?
**A.** Its value is “-”.

**Q.** And the “detection of RC-101 in HVF BV+” value (HVF BV+ pool (stored -80°C), any time point studied, supernatant or cells, 37°C, LC-MS/MS)?
**A.** The value was “undetectable”.
